Laboratory results taken from US20160083733A1, “NOVEL TREATMENT OF METABOLIC DISEASES” (UNIVERSITY OF BREMEN, priority 2013, published 2016).
Where a SMILES comes first, the peptide text is derived from it. Where no end group is shown, it is not given here. The star is where a group is joined. Cbz = O=C(OCc1ccccc1)*

How the values were obtained:
[1] = tested on: MST1; assay: MST1 activation and AKT signalling in INS-1E cells and human islets, western blotting; type: cell-based, rat; settings: for glucose- and cytokine-induced P-MST1, MST1-cleavage and apoptosis: INS-1E cells, 72 h, GLP1 and insulin 100 nM
Experimental: Islet purity was greater than 95% as judged by dithizone staining (if this degree of purity was not achieved by routine isolation, islets were handpicked). Islets from MST1^−/− mice and their WT littermates were isolated as described previously (Schulthess et al., Cell. Metab. 9 (2009) 125-139). Pancreata were perifused with a Liberase™ (#05401119001, Roche, Mannheim, Germany) solution according to the manufacturer's instructions and digested at 37° C., followed by washing and handpicking Human islets were cultured in complete CMRL-1066 (Invitrogen) medium at 5.5 mM glucose and mouse islets and INS-1E cells at complete RPMI-1640 medium at 11.1 mM glucose and HEK293 cells were cultured in Dulbecco's modified Eagle's medium (DMEM). All media included with glutamate, 1% penicillin-streptomycin and 10% fetal bovine serum (FBS, all PAA). INS-1E medium was supplemented with 10 mM HEPES, 1 mM sodium pyruvate and 50 μM β-mercaptoethanol. Islets and INS-1E were exposed to complex diabetogenic conditions: 22.2-33.3 mM glucose, 0.5 mM palmitic acid, the mixture of 2 ng/ml recombinant human IL-1β (R&D Systems, Minneapolis, Minn.)+1,000 U/ml recombinant human IFN-γ (PeProTech) for 72 h, 100 μM H2O2 for 6 h, 1 mM streptozotocin (STZ) for 8 h or 1 mM thapsigargin for 6 h (all Sigma).
At the end of the incubation periods, islets and INS1E cells were washed in ice-cold PBS and lysed in lysis buffer containing 20 mM Tris acetate, 0.27 M sucrose, 1 mM EDTA, 1 mM EGTA, 50 mM NaF, 1% Triton X-100, 5 mM sodium pyrophosphate and 10 mM β-glycerophosphate. Prior to use, the lysis buffer was supplemented with Protease- and Phosphatase-inhibitors (Pierce, Rockford, Ill., USA). Protein concentrations were determined with the BCA protein assay (Pierce). Equivalent amounts of protein from each treatment group were run on a NuPAGE 4-12% Bis-Tris gel (Invitrogen) and electrically transferred onto PVDF membranes. […] Membrane was developed using a chemiluminescence assay system (Pierce) and analyzed using DocIT®LS image acquisition 6.6a (UVP BioImaging Systems, Upland, Calif., USA).

[2] = tested on: human islets; assay: Glucose stimulated insulin secretion (GSIS) in human islets; type: cell-based; settings: Ad-MST1 72 h
Experimental: (§1) For acute insulin release in response to glucose, primary human and mouse islets and INS1 cells were washed and pre-incubated (30 min) in Krebs-Ringer bicarbonate buffer (KRB) containing 2.8 mM glucose and 0.5% BSA. KRB was then replaced by KRB 2.8 mM glucose for 1 h (basal), followed by an additional 1 h in KRB 16.7 mM glucose. Insulin content was extracted with 0.18N HCl in 70% ethanol. Insulin was determined using human and mouse insulin ELISA (ALPCO Diagnostics, Salem, N.H.). Secreted insulin was normalized to insulin content.

[3] = tested on: INS-1E cells; assay: Glucose stimulated insulin secretion (GSIS) in INS-1E cells; type: cell-based, rat; settings: Ad-MST1 72 h
Experimental: as §1

[4] = tested on: PDX1 target genes; assay: RT-PCR of PDX1 target genes in INS-1E cells; type: cell-based, rat; settings: INS-1E cells (FIG. 21 d)
From the text: (§2) Total RNA was isolated from cultured human islets and INS1 cells using TRIzol (Invitrogen), and RT-PCR performed as described previously (Shu et al., Diabetologica 55 (2012), 3296-307). For analysis, the Applied Biosystems StepOne Real-Time PCR system (Applied Biosystems, CA, USA) with TaqMan® Fast Universal PCR Master Mix for TaqMan assays (Applied Biosystems) was used. TaqMan® Gene Expression Assays were used for pdx1 (Hs00426216_m1), SLC2A2 (Hs01096905_m1), GCK (Hs01564555_m1), insulin (Hs02741908_m1), PPIA (Hs99999904_m1) and tubulin (Hs00362387_m1) for human and PDX1 (Rn00755591_m1), SLC2A2 (Rn00563565_m1), GCK (Rn00688285_m1), INS1 (Rn02121433_g1), […] (Rn01774648_g1), BCL2L11 (Hs01083836_m1), PPIA (Rn00690933_m1) and tuba1a (Rn01532518_g1) for rat.

[5] = tested on: PDX1 target genes; assay: RT-PCR of PDX1 target genes in human islets; type: cell-based; settings: human islets (FIG. 15 q)
From the text: as §2

[6] = target: T1, MST1 (Homo sapiens, UniProt Q13043); assay: In vitro kinase assay, phosphorylation of PDX1 by recombinant MST1; type: biochemical
T1 construct: purchased Upstate Biotechnology
T1 sequence (Q13043 1-487): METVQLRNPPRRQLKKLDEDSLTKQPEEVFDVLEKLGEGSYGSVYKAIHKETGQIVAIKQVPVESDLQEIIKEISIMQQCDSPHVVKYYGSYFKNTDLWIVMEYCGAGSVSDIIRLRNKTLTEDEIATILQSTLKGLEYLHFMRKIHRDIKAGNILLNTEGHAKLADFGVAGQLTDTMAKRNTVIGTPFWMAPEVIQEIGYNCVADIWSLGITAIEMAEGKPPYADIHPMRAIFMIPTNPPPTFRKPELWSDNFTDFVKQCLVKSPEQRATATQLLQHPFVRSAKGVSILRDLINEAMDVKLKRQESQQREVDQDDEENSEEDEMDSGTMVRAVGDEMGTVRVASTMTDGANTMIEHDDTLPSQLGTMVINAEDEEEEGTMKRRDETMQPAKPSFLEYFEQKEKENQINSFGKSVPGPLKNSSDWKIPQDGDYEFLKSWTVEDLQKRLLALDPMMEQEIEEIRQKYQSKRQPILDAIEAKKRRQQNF
Experimental: For immunoprecipitation, cells were washed with PBS and lysed in cold buffer containing 20 mM Tris-HCl (pH 7.5), 150 mM NaCl, 0.27 M sucrose, 1 mM EDTA, 1 mM EGTA, 50 mM NaF, 1% NP-40, 5 mM sodium pyrophosphate and 10 mM β-glycerophosphate supplemented with proteinase/phosphatase inhibitors for 30 min on ice. Lysates were centrifuged at 12,000 g for 15 min at 4° C. prior to immunoprecipitation. Immunoprecipitations were carried out with incubating 0.5-1 mg of total lysate with rabbit anti-PDX1 (1:500), rabbit anti-MST1 (1:50), mouse anti-Myc (1:1000) and rabbit anti-GFP (1:1000) antibodies on a rotator at 4° C. overnight. Immunocomplexes were then captured with Protein A Agarose Fast Flow (Millipore) by rotation at 4° C. for 4 h. After five washes with cold lysis buffer, the immunoprecipitates were used for kinase assays or resuspended in sample buffer and separated by NuPAGE 4-12% Bis-Tris gels (Invitrogen).
Purified human active MST1 (Upstate Biotechnology) was incubated with ^32P-ATP (2 μCi, Perkin Elmer Life Sciences), ATP (100 μM) and 1 mM dithiothreitol (DTT) in a kinase buffer containing 40 mM HEPES (pH 7.4), 20 mM MgCl2, 1 mM EDTA and 1 μg of purified recombinant human PDX-1 (Abcam) or bacterially purified GST-PDX1 (WT and mutants) as substrates. After incubation at 30° C. for 30 min, the reaction was stopped by adding loading buffer and proteins were separated on NuPAGE gels and phosphorylation levels visualized either by autoradiography or specific antibody for phospho-PDX1. The total PDX1 was detected with anti-PDX1 antibody.
Expression and induction of recombinant GST proteins were performed as described previously (Tolia et al., Nat. Methods 3 (2006), 55-64). Escherichia coli BL21 cells with various GST-fusion expression plasmids were cultured at 37° C. and expression of recombinant proteins was induced by 0.1 mM final concentration of Isopropyl-β-D-thio-galactoside (IPTG; sigma) for 2.5 h. Cells were lysed using B-PER bacterial protein extraction reagent (Pierce) and purified using Glutathione Spin Columns (Pierce).

[7] = tested on: PDX1; assay: PDX1 protein level, degradation and ubiquitination in HEK293 cells co-transfected with MST1; type: cell-based, mouse
From the text: pCMV-myc-MST1 and kinase-dead (MST1-K59; dnMST1) are described in Yamamoto et al., J. Clin. Invest. 111 (2003), 1463-1474. Mouse pB.RSV.PDX1-GFP is described in Kawamori et al., Diabetes 52 (2003) 2896-2904. pcDNA3 Myr-HA Akt1, HA-Ubiquitin and pCDNA3 Jnk1a1 (apf)(dn-JNK) plasmids were obtained from Addgene (Cambridge, Mass.). Mouse PDX1 mutants (T11, T126, T152, T155, T214 and T231) in pCGIG5 vector were generated by site-directed mutagenesis as described previously (Frogne et al., 7 (2012), e35233). All mutations were verified by sequencing. To make bacterial expression plasmids for PDX1 mutants, the complete mouse PDX1 CDS (wild type and mutants) has been amplified by PCR using a specific set of primers from pCGIG5 plasmids and cloned into a pGEX-6P-1 bacterial expression vector. The rat insulin driven luciferase vector (RIP-Luc) was constructed by subcloning a 700 by fragment containing −660 bp of the rat 2 insulin promoter into a pMCS-Green-Renilla-Luc vector (Thermo Scientific). pCMV-Red firefly Luc vector was obtained from Thermo Scientific.
HEK293 cells were cultured in 10-cm cell culture dishes and transfected with HA-ubiquitin, PDX1 and MST1 expression plasmids for 48 h. For ubiquitination in human islets, 5000 islets per condition were transfected with ubiquitin plasmid. After 24 h, islets were infected with Ad-GFP or Ad-MST1 for 6 h and kept for another 48 h. […] Lysates were immunoprecipitated with PDX1-specific antibody overnight at 4° C. Immunocomplexes were then captured with Protein A Agarose by rotation at 4° C. for 4 h. After extensive washing, immunoprecipitates were boiled in sample buffer and proteins subjected to western blotting with ubiquitin-specific antibody.
HEK293 cells were transfected with PDX1 alone, or together with MST1 expressing-plasmids. Human islets were infected with Ad-GFP (control) or Ad-MST1. At 48 h after post-transfection/infection, cells were treated with 50 μg/ml translation initiation inhibitor cycloheximde (CHX) to the medium at the times indicated and the lysates were subjected to western blotting.

[8] = tested on: PDX1; assay: Luciferase reporter assay of PDX1 transcriptional activity (rat Ins2-Luc) in HEK293 cells; type: cell-based; settings: HEK293, 48 h
Experimental: The transcriptional activity of the PDX1 at promoter level was evaluated using rat Ins2-Luc renilla reporter gene HEK293 cells were transfected with Ins2-Luc renilla, pCMV-firefly, PDX1-WT or PDX1-T11A, alone or together with Myc-MST1 expressing plasmids for 48 h. INS-1E cells transfected with Ins2-Luc renilla and pCMV-firefly plasmids and were infected with Ad-GFP or Ad-MST1 for 48 h. Luciferase activity determined using the Renilla-Firefly Luciferase Dual Assay Kit according to the manufacturer's instructions (Pierce). pCMV-firefly was used as transfection control.

Question: insulin: recombinant human insulin was tested. Which “glucose- and cytokine-induced P-MST1, MST1-cleavage and apoptosis” value [1] did it give?
Answer: inhibited

Question: Which “MST1-induced impairment in GSIS” value [2] does the source give for “PDX1-T11A: mutant PDX1 with amino acid Thr11 substituted to alanine, inert to phosphorylation by MST1” here?
Answer: normalized

Question: What about the “MST1-induced impairment in GSIS” value [3] of the same molecule?
Answer: normalized

Question: What about the “MST1-induced down regulation of PDX1 target genes” value [4] of the same molecule?
Answer: restored

Question: And the “MST1-induced down regulation of PDX1 target genes” value [5]?
Answer: restored

Question: What about the “phosphorylation by recombinant MST1 of PDX1 immunoprecipitated from HEK293 cells” value ([6]; all PDX1 mutants transfected into HEK293) of the same molecule?
Answer: markedly decreased

Question: And the “MST1-induced phosphorylation at the Thr11 site and overall Thr-phosphorylation” value ([6]; p-T11 and pan-Threonine antibodies, immunoprecipitated PDX1)?
Answer: markedly reduced

Question: And the “threonine phosphorylation of PDX1-GST fusion proteins by MST1” value ([6]; proteins purified from bacteria, pan-phospho threonine antibody)?
Answer: exception

Question: And the “MST1-induced rapid degradation of PDX1 in the presence of CHX” value ([7]; 50 μg/ml CHX)?
Answer: did not occur

Question: And the “PDX1 levels in presence of MST1” value ([7]; HEK293 cells, 48 h)?
Answer: does not decrease

Question: What about the PDX1 ubiquitination ([7]; HEK293 cells, HA-ubiquitin, 48 h, MG-132 last 6 h) of the same molecule?
Answer: less

Question: What about the “Reduction of PDX1 transcriptional activity by MST1” value [8] of the same molecule?
Answer: not

Question: How did the “stress-induced MST1 cleavage by diabetic stimuli” value ([1]; human islets and INS-1E cells) turn out when z-DEVD-fmk was run?
Answer: JNK and caspase-3 were responsible for stress-induced MST1 cleavage

Question: How did the “glucose- and cytokine-induced P-MST1, MST1-cleavage and apoptosis” value [1] turn out when “GLP1: Glucagon like-peptide 1 (Sigma), exogenously added mitogen (HAEGTFTSDVSSYLEGQAAKEFIAWLVKGR; ends and bridges not checked; UniProt P01275 98-127, looked up)” was run?
Answer: inhibited

Question: Which “disappearance of PDX1” value ([7]; PDX1 overexpressing HEK293 cells with MST1, MG-132 50 μM for 6 h) does the source give for `CC(C)C[C@@H](C=O)NC(=O)[C@H](CC(C)C)NC(=O)[C@H](CC(C)C)NC(=O)OCc1ccccc1` [MG-132, reference compound] (Cbz-Leu-Leu-Leu-aldehyde) here?
Answer: abolished
